Experimental data published in US8198236B2, “Methods and compositions for the treatment of cancer” (Washington University, priority 2007, dated 2012).

Tests used:
[1] = mouse, in vivo
Protocol: Hemotoxylin and eosin (H&E) staining was performed on tumor xenograft tissue, skin and intestine harvested at the end of Mesd treatment.
FIG. 24D: H&E staining of tail vertebrae treated with PBS, Mesd or Mesd peptide.

[2] = test system: MMTV-Wnt1 tumors; test: MMTV-Wnt1 tumor transplant growth in nude mice; type: in vivo; conditions: i.p. every other day, first dose 15 mg/kg then 10 mg/kg, three weeks
Protocol: Recombinant Mesd protein was prepared as described (Li Y, et al. (2005) J Cell Sci 118(22): 5305-5314). Mesd peptide, […] (SEQ ID NO: 14), was manufactured by Abgent (San Diego). Female athymic nude mice (Taconic) (6-8 weeks old) were used for passaging tumors from MMTV-Wnt1 mice (Taconic). MMTV-Wnt1 tumors were serially passaged in mice by implantation in the mammary fat pad as described (DeAlmeida V, et al. (2007) Cancer Res 67, 5371-5379). Therapeutic agents (200 μL Mesd protein, Mesd peptide or PBS) were administrated i.p. with a first dose of 15 mg/kg, followed by 10 mg/kg (9 more doses). Three groups of mice were treated every other day for three weeks and tumor volumes were measured thrice weekly.
The pharmacokinetics and bioavailability of Mesd and Mesd peptide ([…] (SEQ ID NO: 14)) were first investigated (FIG. 23). Cells from MMTV-Wnt1 tumors were injected into the mammary fat pads of female nude mice, and the resultant mice were subsequently randomly grouped when the mean tumor volume reached ca. 200 mm^3. […]
In these experiments, mice bearing established MMTV-Wnt1 tumor transplants were divided into three groups (five animals per group) and were i.p. injected with PBS (vehicle), Mesd, or Mesd peptide every other day. Tumor volume was analyzed using caliper measurement. […]

[3] = mouse, in vivo; remark: listed apart in the source
Protocol: In experiments shown in FIG. 23, pharmacokinetics of Mesd peptide and Mesd were examined. FIG. 23A: Amount of Mesd in serum following a single dose of protein administration. Mice were dosed at 5, 10, 20 mg/kg of Mesd via i.p. and the serum samples were collected from individual mice at the indicated time points. The levels of Mesd in serum were quantified by comparison to Mesd pure protein with known concentrations in Western blot analysis. Values are the average of triple determinations with S.D. indicated by error bars. […] Samples were obtained by terminal bleed under anesthesia at each of the indicated time points (N=3 animals per time point). Radioactivity was measured using a gamma counter and DPM converted to mass units/mL blood using the specific activity (DPM/mass) of each test substance. Data are plotted as mass U/mL of test substance with standard deviation indicated by error bars.

[4] = test system: Wnt signaling; test: Wnt signaling in MMTV-Wnt1 tumors (GST-E-cadherin pull-down, c-Myc expression); type: in vivo, mice; conditions: GST-E-cadherin pull-down and c-Myc expression
Protocol: The GST-E-cadherin pulldown assay was performed as previously described (2). Cells expressing control or LRP6 shRNA were treated with L cells or Wnt3a-conditioned media (CM) for 4 h. Free β-catenin was determined using a GST-E-cadherin pull-down assay. Cells were lysed for 30 minutes at 4° C. Protein concentrations in lysates were quantified, and equal quantities of total proteins from different samples were incubated with GST-E-cadherin Sepharose beads for 4 h at 4° C. After incubation, the beads were washed three times and the bound proteins were eluted and separated via SDS-PAGE. Western blotting was performed using antibody to β-catenin.
In these experiments, mice bearing established MMTV-Wnt1 tumor transplants were divided into three groups (five animals per group) and were i.p. injected with PBS (vehicle), Mesd, or Mesd peptide every other day. Tumor volume was analyzed using caliper measurement. Data represent at least three independent experiments and each time point represents the mean tumor volume±SEM. *p<0.05; **p<0.01. […] Scale bar=50 μm.

[5] = test system: Wnt signaling; test: TCF/LEF-luc reporter assay in Wnt-3A-treated HEK293 cells; type: cell-based; conditions: Wnt3A conditioned medium plus Dkk1 at 10 nM, 16 hours at 37° C.
Protocol: HEK293 cells were plated into six-well plates. For each well, 0.1 μg of the TOP-FLASHTCF luciferase construct (Upstate Biotechnology) was cotransfected with 0.8 μg Mesd-expressing vector, 0.8 μg Mesd mutant-expressing vector, or empty vector. A β-galactosidase-expressing vector (Promega, Madison, Wis.) was included as an internal control for transfection efficiency. After 48 hours, cells were lysed and both luciferase and β-galactosidase activities were determined with enzyme assay kits (Promega). The luciferase activity was determined with a luminometer using the Dual Luciferase Assay system (Promega). Luciferase activity was normalized to the activity of the β-galactosidase.
In these experiments, transfected cells were treated without Wnt-3A or with Wnt-3A plus the indicated inhibitors (Mesd and/or Dkk1) for 16 hours at 37° C. Wnt signaling was measured by quantifying the luciferase activity using a live cell imaging system.

[6] = test system: HCC1187 cells; test: MTT assay of Wnt3a CM-stimulated growth of HCC1187 cells; type: cell-based, human; conditions: Dkk1 10 nM, 24 h
Protocol: Cell growth and cell proliferation were measured by MTT assay (Promega) and BrdU incorporation using the BrdU ELISA kit (Roche Molecular Systems) according to the manufacturers' instructions. […] Breast cancer cells expressing control or LRP6 shRNA were seeded into 48-well plates. MTT-labeling reagent was added to each well 24 h later, and plates were incubated at 37° C. for 4 h. After the incubation period, the formazan crystals were dissolved in an MTT solubilization reagent and the resulting color was quantified spectrophotometrically. In some experiments, cell proliferation was measured by BrdU incorporation using the BrdU ELISA kit (Roche Molecular Systems) according to the manufacturer's instructions. Briefly, cancer cells expressing control or LRP6 shRNA were plated on 96-well plate. Cells were incubated with BrdU for 24 h, and the newly synthesized BrdU-DNA was then determined by colorimetry using an ELISA reader. All experiments were performed three times in triplicate.
In FIG. 20, * indicates p<0.05 compared to L cell CM; ** indicates p<0.01 compared to L cell CM.

Molecule | Adverse effect on small intestine (gross examination) [1] | Architecture of gastrointestinal compartments and skin (H&E) [1] | Bone lesions or outgrowths in tail vertebrae [1] | General health and body weight of treated mice [1] | Tumor growth (tumor volume, caliper) [2] | Bioavailability [3] | Distribution into tissues [3] | Wnt signaling in tumors compared to control treatment [4] | Inhibition of Wnt signaling (luciferase activity) [5] | Effect on Wnt3a CM-increased cell growth [6]
KGGGSKEKNKTKQDKGKKKKEGDLKSRSSKEENRAGNK [Mesd peptide] | no significant adverse effect | morphologically normal | no significant bone lesions or outgrowths | grossly healthy and maintain their weights | significantly inhibit tumor growth | 60% | rapid and widespread | decreased Wnt signaling | – | –
Dkk1: Human recombinant DKK1 protein, LRP6-specific ligand and antagonist (protein) TLNSVLNSNAIKNLPPPLGGAAGHPGSAVSAAPGILYPGGNKYQTIDNYQPYPCAEDEECGTDEYCASPTRGGDAGVQICLACRKRRKRCMRHAMCCPGNYCKNGICVSSDQNHFRGEIEETITESFGNDHSTLDGYSRRTTLSSKMYHTKGQEGSVCLRSSDCASGLCCARHFWSKICKPVLKEGQVCTKHRRKGSHGLEIFQRCYCGEGLSCRIQKDHHQASNSSRLHTCQRH | – | – | – | – | – | – | – | – | more potent inhibitor | abolished
